In patent US20180084779A1, “PLANT DISEASE CONTROL AGENT AND USE THEREOF” (NIHON NOHYAKU CO., LTD., priority 2015, published 2018):

Tested on: Septoria tritici, KUK-1-21 Strain
Assay: Test for wheat leaf blotch, fluoroimide and/or SDHI agent sprayed on wheat pots, lesion area index 21 days after inoculation
Format: in vivo
Details: SDHI agent 1 ppm + fluoroimide 50 ppm
Method: (§1) Control effect (%)=[(Disease index of no treatment area−Disease index of treatment area)/Disease index of no treatment area]×100 [Formula 1]
(§2) The expected effect (expected value E) by using an active ingredient in combination with each of other active ingredients in the above tests was determined by the following Colby formula (see COLBY, S. R., Weeds 15: 20-22 (1967)).
(§3) E(Expected effect)=(X+Y)−(X×Y/100) [Formula 2]
(§4) Test for Wheat Leaf Blotch (Septoria tritici, KUK-1-21 Strain):
(§5) Agrochemical liquids containing a predetermined concentration of fluoroimide and/or a predetermined concentration of each SDHI agent were applied to wheat in a predetermined amount with a spray gun. After air drying, a suspension of fungus spore of Septoria tritici adjusted to 1.0×10^7 spores/ml was inoculated by spraying. After that, the wheat pots were kept in a growth chamber under a light condition of at 15° C. 100% RH to encourage the development of the disease. Twenty-one days after the inoculation, the lesion area index (0-10) was set and the controlling effects and expected values are examined in the same manner as Example 1.

SMILES | Control effect Expected value (Colby)
Cn1cc(C(=O)Nc2ccccc2-c2cc(F)c(F)c(F)c2)c(C(F)F)n1 [fluxapyroxad] | 5%
O=C(Nc1ccccc1-c1ccc(Cl)cc1)c1cccnc1Cl [boscalid] | 10%
CC(C)C1C2CCC1c1c(NC(=O)c3cn(C)nc3C(F)F)cccc12 (stereo not drawn) [isopyrazam] | 19%
Cn1cc(C(=O)Nc2ccc(F)cc2-c2ccc(Cl)c(Cl)c2)c(C(F)F)n1 [bixafen] | 76%

Same assay, conditions: SDHI agent 1 ppm + fluoroimide 50 ppm; 21 days

SMILES | Control effect Combination with fluoroimide
Cn1cc(C(=O)Nc2ccccc2-c2cc(F)c(F)c(F)c2)c(C(F)F)n1 [fluxapyroxad] | 15%
O=C(Nc1ccccc1-c1ccc(Cl)cc1)c1cccnc1Cl [boscalid] | 15%
CC(C)C1C2CCC1c1c(NC(=O)c3cn(C)nc3C(F)F)cccc12 (stereo not drawn) [isopyrazam] | 60%
Cn1cc(C(=O)Nc2ccc(F)cc2-c2ccc(Cl)c(Cl)c2)c(C(F)F)n1 [bixafen] | 95%

Same assay, conditions: SDHI agent 1 ppm + fluoroimide 100 ppm

SMILES | Control effect Expected value (Colby)
Cn1cc(C(=O)Nc2ccccc2-c2cc(F)c(F)c(F)c2)c(C(F)F)n1 [fluxapyroxad] | 25%
O=C(Nc1ccccc1-c1ccc(Cl)cc1)c1cccnc1Cl [boscalid] | 29%
CC(C)C1C2CCC1c1c(NC(=O)c3cn(C)nc3C(F)F)cccc12 (stereo not drawn) [isopyrazam] | 36%
Cn1cc(C(=O)Nc2ccc(F)cc2-c2ccc(Cl)c(Cl)c2)c(C(F)F)n1 [bixafen] | 81%

Same assay, conditions: SDHI agent 1 ppm + fluoroimide 100 ppm; 21 days

SMILES | Control effect Combination with fluoroimide
Cn1cc(C(=O)Nc2ccccc2-c2cc(F)c(F)c(F)c2)c(C(F)F)n1 [fluxapyroxad] | 50%
O=C(Nc1ccccc1-c1ccc(Cl)cc1)c1cccnc1Cl [boscalid] | 0%
CC(C)C1C2CCC1c1c(NC(=O)c3cn(C)nc3C(F)F)cccc12 (stereo not drawn) [isopyrazam] | 20%
Cn1cc(C(=O)Nc2ccc(F)cc2-c2ccc(Cl)c(Cl)c2)c(C(F)F)n1 [bixafen] | 85%

Same assay, conditions: SDHI agent 1 ppm, fluoroimide 0 ppm; 21 days

SMILES | Control effect SDHI alone
Cn1cc(C(=O)Nc2ccccc2-c2cc(F)c(F)c(F)c2)c(C(F)F)n1 [fluxapyroxad] | 0%
O=C(Nc1ccccc1-c1ccc(Cl)cc1)c1cccnc1Cl [boscalid] | 5%
CC(C)C1C2CCC1c1c(NC(=O)c3cn(C)nc3C(F)F)cccc12 (stereo not drawn) [isopyrazam] | 15%
Cn1cc(C(=O)Nc2ccc(F)cc2-c2ccc(Cl)c(Cl)c2)c(C(F)F)n1 [bixafen] | 75%

Same assay, conditions: SDHI agent 3 ppm + fluoroimide 50 ppm

SMILES | Control effect Expected value (Colby)
Cn1cc(C(=O)Nc2ccccc2-c2cc(F)c(F)c(F)c2)c(C(F)F)n1 [fluxapyroxad] | 95%
O=C(Nc1ccccc1-c1ccc(Cl)cc1)c1cccnc1Cl [boscalid] | 19%
CC(C)C1C2CCC1c1c(NC(=O)c3cn(C)nc3C(F)F)cccc12 (stereo not drawn) [isopyrazam] | 76%
Cn1cc(C(=O)Nc2ccc(F)cc2-c2ccc(Cl)c(Cl)c2)c(C(F)F)n1 [bixafen] | 86%

Same assay, conditions: SDHI agent 3 ppm + fluoroimide 50 ppm; 21 days

SMILES | Control effect Combination with fluoroimide
Cn1cc(C(=O)Nc2ccccc2-c2cc(F)c(F)c(F)c2)c(C(F)F)n1 [fluxapyroxad] | 90%
O=C(Nc1ccccc1-c1ccc(Cl)cc1)c1cccnc1Cl [boscalid] | 65%
CC(C)C1C2CCC1c1c(NC(=O)c3cn(C)nc3C(F)F)cccc12 (stereo not drawn) [isopyrazam] | 85%
Cn1cc(C(=O)Nc2ccc(F)cc2-c2ccc(Cl)c(Cl)c2)c(C(F)F)n1 [bixafen] | 100%

Same assay, conditions: SDHI agent 3 ppm + fluoroimide 100 ppm

SMILES | Control effect Expected value (Colby)
Cn1cc(C(=O)Nc2ccccc2-c2cc(F)c(F)c(F)c2)c(C(F)F)n1 [fluxapyroxad] | 96%
O=C(Nc1ccccc1-c1ccc(Cl)cc1)c1cccnc1Cl [boscalid] | 36%
CC(C)C1C2CCC1c1c(NC(=O)c3cn(C)nc3C(F)F)cccc12 (stereo not drawn) [isopyrazam] | 81%
Cn1cc(C(=O)Nc2ccc(F)cc2-c2ccc(Cl)c(Cl)c2)c(C(F)F)n1 [bixafen] | 89%

Same assay, conditions: SDHI agent 3 ppm + fluoroimide 100 ppm; 21 days

SMILES | Control effect Combination with fluoroimide
Cn1cc(C(=O)Nc2ccccc2-c2cc(F)c(F)c(F)c2)c(C(F)F)n1 [fluxapyroxad] | 100%
O=C(Nc1ccccc1-c1ccc(Cl)cc1)c1cccnc1Cl [boscalid] | 80%
CC(C)C1C2CCC1c1c(NC(=O)c3cn(C)nc3C(F)F)cccc12 (stereo not drawn) [isopyrazam] | 85%
Cn1cc(C(=O)Nc2ccc(F)cc2-c2ccc(Cl)c(Cl)c2)c(C(F)F)n1 [bixafen] | 90%

Same assay, conditions: SDHI agent 3 ppm, fluoroimide 0 ppm; 21 days

SMILES | Control effect SDHI alone
Cn1cc(C(=O)Nc2ccccc2-c2cc(F)c(F)c(F)c2)c(C(F)F)n1 [fluxapyroxad] | 95%
O=C(Nc1ccccc1-c1ccc(Cl)cc1)c1cccnc1Cl [boscalid] | 15%
CC(C)C1C2CCC1c1c(NC(=O)c3cn(C)nc3C(F)F)cccc12 (stereo not drawn) [isopyrazam] | 75%
Cn1cc(C(=O)Nc2ccc(F)cc2-c2ccc(Cl)c(Cl)c2)c(C(F)F)n1 [bixafen] | 85%

Same assay, conditions: SDHI agent 10 ppm + fluoroimide 50 ppm

SMILES | Control effect Expected value (Colby)
Cn1cc(C(=O)Nc2ccccc2-c2cc(F)c(F)c(F)c2)c(C(F)F)n1 [fluxapyroxad] | 100%
O=C(Nc1ccccc1-c1ccc(Cl)cc1)c1cccnc1Cl [boscalid] | 62%
CC(C)C1C2CCC1c1c(NC(=O)c3cn(C)nc3C(F)F)cccc12 (stereo not drawn) [isopyrazam] | 100%
Cn1cc(C(=O)Nc2ccc(F)cc2-c2ccc(Cl)c(Cl)c2)c(C(F)F)n1 [bixafen] | 100%

Same assay, conditions: SDHI agent 10 ppm + fluoroimide 50 ppm; 21 days

SMILES | Control effect Combination with fluoroimide
Cn1cc(C(=O)Nc2ccccc2-c2cc(F)c(F)c(F)c2)c(C(F)F)n1 [fluxapyroxad] | 100%
O=C(Nc1ccccc1-c1ccc(Cl)cc1)c1cccnc1Cl [boscalid] | 100%
CC(C)C1C2CCC1c1c(NC(=O)c3cn(C)nc3C(F)F)cccc12 (stereo not drawn) [isopyrazam] | 100%
Cn1cc(C(=O)Nc2ccc(F)cc2-c2ccc(Cl)c(Cl)c2)c(C(F)F)n1 [bixafen] | 100%

Same assay, conditions: SDHI agent 10 ppm + fluoroimide 100 ppm

SMILES | Control effect Expected value (Colby)
Cn1cc(C(=O)Nc2ccccc2-c2cc(F)c(F)c(F)c2)c(C(F)F)n1 [fluxapyroxad] | 100%
O=C(Nc1ccccc1-c1ccc(Cl)cc1)c1cccnc1Cl [boscalid] | 70%
CC(C)C1C2CCC1c1c(NC(=O)c3cn(C)nc3C(F)F)cccc12 (stereo not drawn) [isopyrazam] | 100%
Cn1cc(C(=O)Nc2ccc(F)cc2-c2ccc(Cl)c(Cl)c2)c(C(F)F)n1 [bixafen] | 100%

Same assay, conditions: SDHI agent 10 ppm + fluoroimide 100 ppm; 21 days

SMILES | Control effect Combination with fluoroimide
Cn1cc(C(=O)Nc2ccccc2-c2cc(F)c(F)c(F)c2)c(C(F)F)n1 [fluxapyroxad] | 100%
O=C(Nc1ccccc1-c1ccc(Cl)cc1)c1cccnc1Cl [boscalid] | 95%
CC(C)C1C2CCC1c1c(NC(=O)c3cn(C)nc3C(F)F)cccc12 (stereo not drawn) [isopyrazam] | 100%
Cn1cc(C(=O)Nc2ccc(F)cc2-c2ccc(Cl)c(Cl)c2)c(C(F)F)n1 [bixafen] | 100%

Same assay, conditions: SDHI agent 10 ppm, fluoroimide 0 ppm; 21 days

SMILES | Control effect SDHI alone
Cn1cc(C(=O)Nc2ccccc2-c2cc(F)c(F)c(F)c2)c(C(F)F)n1 [fluxapyroxad] | 100%
O=C(Nc1ccccc1-c1ccc(Cl)cc1)c1cccnc1Cl [boscalid] | 60%
CC(C)C1C2CCC1c1c(NC(=O)c3cn(C)nc3C(F)F)cccc12 (stereo not drawn) [isopyrazam] | 100%
Cn1cc(C(=O)Nc2ccc(F)cc2-c2ccc(Cl)c(Cl)c2)c(C(F)F)n1 [bixafen] | 100%

Tested on: Septoria tritici, KUK-1-21 Strain
Assay: Test for wheat leaf blotch, fluoroimide and/or DMI agent sprayed on wheat pots, lesion area index 17 days after inoculation
Format: in vivo
Details: DMI agent 1 ppm + fluoroimide 50 ppm
Method: as §4
as §5, with “DMI” for “SDHI”, “Seventeen” for “Twenty-one”, “determined for” for “set and”, “evaluation of” for “controlling effects and expected values are examined in”, “control effect.” for “same manner as Example 1.”
as §1, §2, §3
X=controlling effect of fungicide A alone
Y=controlling effect of fungicide B alone

SMILES | Controlling effect Expected value (Colby)
CC1(C)CCC(Cc2ccc(Cl)cc2)C1(O)Cn1cncn1 (stereo not drawn) [metconazole] | 30%

Same assay, conditions: DMI agent 1 ppm + fluoroimide 50 ppm; 17 days

SMILES | Controlling effect Combination with fluoroimide
CC1(C)CCC(Cc2ccc(Cl)cc2)C1(O)Cn1cncn1 (stereo not drawn) [metconazole] | 68%

Same assay, conditions: DMI agent 1 ppm + fluoroimide 100 ppm

SMILES | Controlling effect Expected value (Colby)
CC1(C)CCC(Cc2ccc(Cl)cc2)C1(O)Cn1cncn1 (stereo not drawn) [metconazole] | 53%

Same assay, conditions: DMI agent 1 ppm + fluoroimide 100 ppm; 17 days

SMILES | Controlling effect Combination with fluoroimide
CC1(C)CCC(Cc2ccc(Cl)cc2)C1(O)Cn1cncn1 (stereo not drawn) [metconazole] | 78%

Same assay, conditions: DMI agent 1 ppm, fluoroimide 0 ppm; 17 days

SMILES | Controlling effect DMI alone
CC1(C)CCC(Cc2ccc(Cl)cc2)C1(O)Cn1cncn1 (stereo not drawn) [metconazole] | 6%

Same assay, conditions: DMI agent 3 ppm + fluoroimide 50 ppm

SMILES | Controlling effect Expected value (Colby)
CC1(C)CCC(Cc2ccc(Cl)cc2)C1(O)Cn1cncn1 (stereo not drawn) [metconazole] | 46%

Same assay, conditions: DMI agent 3 ppm + fluoroimide 50 ppm; 17 days

SMILES | Controlling effect Combination with fluoroimide
CC1(C)CCC(Cc2ccc(Cl)cc2)C1(O)Cn1cncn1 (stereo not drawn) [metconazole] | 84%

Same assay, conditions: DMI agent 3 ppm + fluoroimide 100 ppm

SMILES | Controlling effect Expected value (Colby)
CC1(C)CCC(Cc2ccc(Cl)cc2)C1(O)Cn1cncn1 (stereo not drawn) [metconazole] | 64%

Same assay, conditions: DMI agent 3 ppm + fluoroimide 100 ppm; 17 days

SMILES | Controlling effect Combination with fluoroimide
CC1(C)CCC(Cc2ccc(Cl)cc2)C1(O)Cn1cncn1 (stereo not drawn) [metconazole] | 89%

Same assay, conditions: DMI agent 3 ppm, fluoroimide 0 ppm; 17 days

SMILES | Controlling effect DMI alone
CC1(C)CCC(Cc2ccc(Cl)cc2)C1(O)Cn1cncn1 (stereo not drawn) [metconazole] | 28%

Same assay, conditions: DMI agent 10 ppm + fluoroimide 50 ppm

SMILES | Controlling effect Expected value (Colby)
CC1(C)CCC(Cc2ccc(Cl)cc2)C1(O)Cn1cncn1 (stereo not drawn) [metconazole] | 92%

Same assay, conditions: DMI agent 10 ppm + fluoroimide 50 ppm; 17 days

SMILES | Controlling effect Combination with fluoroimide
CC1(C)CCC(Cc2ccc(Cl)cc2)C1(O)Cn1cncn1 (stereo not drawn) [metconazole] | 95%

Same assay, conditions: DMI agent 10 ppm + fluoroimide 100 ppm

SMILES | Controlling effect Expected value (Colby)
CC1(C)CCC(Cc2ccc(Cl)cc2)C1(O)Cn1cncn1 (stereo not drawn) [metconazole] | 95%

Same assay, conditions: DMI agent 10 ppm + fluoroimide 100 ppm; 17 days

SMILES | Controlling effect Combination with fluoroimide
CC1(C)CCC(Cc2ccc(Cl)cc2)C1(O)Cn1cncn1 (stereo not drawn) [metconazole] | 89%

Same assay, conditions: DMI agent 10 ppm, fluoroimide 0 ppm; 17 days

SMILES | Controlling effect DMI alone
CC1(C)CCC(Cc2ccc(Cl)cc2)C1(O)Cn1cncn1 (stereo not drawn) [metconazole] | 89%
